Columns and labels:
Type in all cases: in vivo, Glycine max
[1] = tested on: constitutively GA-deficient transgenic dwarf soybean line 719; assay: Experiment I greenhouse test, seed imbibition, GA-deficient soybean; set-up: Observation on Transgenic Line 719: key: −1: treated plants are shorter as compared to untreated plants; 0: treated plants had the same stature as untreated plants; 1: treated plants are slightly elongated as compared to untreated plants; 2: treated plants are moderately elongated as compared to untreated plants; 3: treated plants are highly elongated as compared to untreated plants; 4: treated plants are extremely elongated as compared to untreated plants; settings: 0.25 mg/ml; for effect in both the constitutive transgenic dwarf and wild-type soybean lines: imbibition, lines 719 and A3237
Excerpt: Seeds are covered with 0.5″ of vermiculite.

[2] = tested on: constitutively GA-deficient transgenic dwarf soybeans (line 719); assay: Summary of first two greenhouse experiments, rescue of GA-deficient soybeans; set-up: key: +: transgenic soybeans are rescued; 0: transgenic soybeans are not rescued
Experimental: Compounds are first prepared as 25 mg/ml solutions in ethanol as described above, and then diluted into 40 ml of water to prepare the final 0.25 mg/ml treatment solutions. Visual observations on solubilities (milky, clear, etc.) of the treatment solutions are noted. The treatment solutions are divided into two 20 ml portions, each in 50 ml plastic centrifuge tubes. In addition to treating seeds with solutions containing the test compounds, untreated seeds and seeds imbibed in ethanol-water solution (300 μl ethanol in 30 mls of water) are also included in this experiment as controls. In the latter case, 20 seeds are imbibed in 30 mls of solution for six hours.
Two soybean varieties are selected for testing: constitutively GA-deficient transgenic dwarf soybean line 719 (plasmid pMON29801, constitutive FMV promoter/asCPScc; which is a mixture of 719−2 and 719+17), and A3237, the wild-type parent material. […] After imbibition, seeds are removed from the test tubes, placed on wax paper to dry, and planted in bread pans containing farm soil amended with fertilizer at 20 seeds/pan. Seeds are covered with 0.5″ of vermiculite. Pans are transferred to the greenhouse, which had day/night temperatures of 86/68° F. (30/20° C.), and subirrigated. Illumination is at a light intensity of 300-400 μmolm^−2s^−1 photosynthetic photon flux; 16 hours light/8 hours dark. Subsequent waterings are also through sub-irrigation until the test is terminated three weeks later. Observations included the number of dwarf, intermediate, and tall plants; plant height; uniformity of rescue; and any visual effects.
All compounds are tested at final concentrations of 0.25, 0.025, and 0.0025 mg/ml except for GA9, which is tested at 0.125, 0.0125, and 0.00125 mg/ml. (The compounds are tested in Experiment I at only one concentration, i.e., 0.25 mg/ml). Test tubes contained […] of ethanol solution per tube. Final volumes are made up to 30 ml with deionized water. After shaking, the treatment solutions (15 ml each) are transferred to each of two 50 ml test tubes. Treatments 1 to 27 are performed on wild-type line A3237; treatments 28 to 54 are performed on constitutively GA-deficient transgenic dwarf soybean line 719 (a mixture of 719−2 and 719+17). Twenty seeds are used in each treatment. Dry seed, ethanol/water-imbibed seed (1% ethanol in water, v/v), and water-imbibed seeds are included as controls. Seeds are imbibed for 6 hours in the test solutions, then planted in bread pans containing Metromix 350 (The Scotts Company, Marysville, Ohio), and covered with 0.5″ Metro-mix. Covered pans are transferred to the greenhouse and subirrigated. Illumination is at a light intensity of 300-400 μmolm^−2s^−1 photosynthetic photon flux; 16 hours light/8 hours dark. Subsequent waterings are also through sub-irrigation until the test is terminated three weeks later. Observations included the number of dwarf, intermediate, and tall plants; plant height; uniformity of rescue; and any visual effects. Digital photographs are also taken.

[3] = tested on: GA-deficient transgenic soybean line 719 (R5); assay: Hilum treatment of soybean seeds, seedling growth and development, GA-deficient soybean; set-up: key to Emergence timing / Hypocotyl length (6 DAP) / 1st internode length (12 DAP) / 3rd internode length (20 DAP) / 2nd internode length (12 DAP): pos: emergence faster/stem segment longer than controls; 0: emergence timing/stem segment length similar to controls; neg: emergence slower/stem segment shorter than controls; settings: for 1st internode length (12 DAP) / Emergence timing / Hypocotyl length (6 DAP): single rate per compound 8.3-16.5 μg/seed; for 2nd internode length (12 DAP) / 3rd internode length (20 DAP): single rate per compound 9.7-16.5 μg/seed; for stem elongation past the first internode: initial seed dose approximately 10 μg/seed
Experimental: (§1) In the previous experiments, the effect of various GA compounds on transgenic, GA-deficient and wild-type soybean is evaluated by treating seeds with these compounds via imbibition. Several of these compounds are not completely soluble in water, which limited the interpretation of their utility in rescuing GA-deficient dwarf plants. The purpose of this experiment is to reevaluate selected, previously tested compounds, and additional compounds, by introducing them to the seed via the hilum. As shown by the results presented below, direct application of small quantities of GA compounds dissolved in an organic solvent to the hilum is an effective method of treating soybean seeds. As in the previously described experiments, comparison is made between activity on GA-deficient soybean seedlings and normal (wild-type) seedlings. […] soybean seeds are supplied by Asgrow Seed Company (Des Moines, Iowa). Seed of GA-deficient transgenic soybean line 719 is created by transformation of […] soybean with pMON29801 (FMV/antisense CPScc). Fifth generation seed (R5) is used for these experiments. […] When multiple droplets are applied, each 1 μl droplet is allowed to dry before subsequent droplets are added. Ethanol minus compound is used a treatment control. […] (29° C.) and 75° F. (24° C.), respectively. Emergence timing is measured by counting the number of emerged seedlings at different times after planting. Emergence is defined as the presence of cotyledons raised to soil level or above. […] To assess the ability of a seed treatment to deliver biological activity beyond the first internode, measurements are taken on selected treatments after prolonged growth and development.

wild-type A3237 soybean = assay: Hilum treatment of soybean seeds, seedling growth and development, wild-type soybean; set-up: key to Emergence timing / Hypocotyl length (6 DAP) / 1st internode length (12 DAP) / 3rd internode length (20 DAP): pos: emergence faster/stem segment longer than controls; 0: emergence timing/stem segment length similar to controls; neg: emergence slower/stem segment shorter than controls; settings: for 1st internode length (12 DAP) / Emergence timing / Hypocotyl length (6 DAP): single rate per compound 8.3-16.5 μg/seed
Experimental: as §1

[4] = 0.0025 mg/ml solution (ethanol-water)
[5] = 0.025 mg/ml solution (ethanol-water)
[6] = 0.25 mg/ml solution (ethanol-water)
[7] = L719, hilum treatment, rate response

Row | Structure (SMILES) | effect in both the constitutive transgenic dwarf and wild-type soybean lines [1] | Observation on Transgenic Line 719 ([1]; seeds imbibed 5 hours) | Rescue of GA-deficient soybeans [2, 4] | Rescue of GA-deficient soybeans [2, 5] | Rescue of GA-deficient soybeans [2, 6] | Lowest rate where biological activity is observed, 1st internode length (10 DAP) [3, 7] | Lowest rate where biological activity is observed, emergence timing [3, 7] | Lowest rate where biological activity is observed, hypocotyl length (5 DAP) [3, 7] | 1st internode length (12 DAP) ([3]; L719, hilum treatment) | Emergence timing ([3]; L719, hilum treatment) | Hypocotyl length (6 DAP) ([3]; L719, hilum treatment) | 2nd internode length (12 DAP) ([3]; L719, hilum treatment) | 3rd internode length (20 DAP) ([3]; L719, hilum treatment) | stem elongation past the first internode ([3]; hilum) | Lowest rate where biological activity is observed, 1st internode length (10 DAP) (wild-type A3237 soybean; rate response) | Lowest rate where biological activity is observed, emergence timing (wild-type A3237 soybean; rate response) | Lowest rate where biological activity is observed, hypocotyl length (5 DAP) (wild-type A3237 soybean; rate response) | 1st internode length (12 DAP) (wild-type A3237 soybean) | Emergence timing (wild-type A3237 soybean) | Hypocotyl length (6 DAP) (wild-type A3237 soybean) | further results
1 | C=C1C[C@]23C[C@@]1(O)CC[C@H]2[C@@]12C=C[C@H](O)[C@@](C)(C(=O)O1)[C@H]2[C@@H]3C(=O)O [GA3, gibberellic acid] | excessive elongation | 3 | + | + | + | 10 μg/seed | 0.1 μg/seed | 0.1 μg/seed | pos | pos | pos | 0 | 0 | not active beyond the first internode | 1 μg/seed | 0.1 μg/seed | 0.1 μg/seed | 0 | pos | pos | 
2 | C=C1C[C@]23C[C@@]1(O)CC[C@H]2[C@@]12C=C[C@H](OC(C)=O)[C@@](C)(C(=O)O1)[C@H]2[C@@H]3C(=O)O [GA3-3-acetate] | excessive elongation | 3 | + | + | + |  |  |  | pos | pos | pos |  |  |  |  |  |  | 0 | pos | pos | 
3 | C=C1C[C@]23C[C@@]1(O)CC[C@H]2[C@@]12CC=C[C@@](C)(C(=O)O1)[C@H]2[C@@H]3C(=O)O [GA5] | excessive elongation | 4 | + | + | + | 1 μg/seed | 1 μg/seed | 0.1 μg/seed | pos | pos | pos | pos | pos | measurable increases in internode length up to the third internode | 1 μg/seed | 0.1 μg/seed | 1 μg/seed | pos | pos | pos | Lowest rate where biological activity is observed, 3rd internode length (20 DAP) [3, 7]: >1 μg/seed; rate giving increased internode elongation at internode number 3 ([3]; hilum): greater than or equal to 1 μg/seed; biological activity on the first internode of line 719 compared to GA3 and GA9 ([3]; hilum, rate response): approximately 10 times more; 3rd internode length (20 DAP) (wild-type A3237 soybean; rate 9.7 μg/seed): pos; Lowest rate where biological activity is observed, 3rd internode length (20 DAP) (wild-type A3237 soybean; rate response): 1 μg/seed
4 | C=C1C[C@]23C[C@H]1CC[C@H]2[C@@]12CCC[C@@](C)(C(=O)O1)[C@H]2[C@@H]3C(=O)O [GA9] | excessive elongation | 3 |  |  | + | 10 μg/seed | 0.1 μg/seed | 0.1 μg/seed | pos | pos | pos | 0 | 0 |  | 1 μg/seed | 0.1 μg/seed | 1 μg/seed | 0 | pos | pos | Rescue of GA-deficient soybeans ([2]; 0.00125 mg/ml solution (ethanol-water)): 0; Rescue of GA-deficient soybeans ([2]; 0.0125 mg/ml solution (ethanol-water)): +; Rescue of GA-deficient soybeans ([2]; 0.125 mg/ml solution (ethanol-water)): +
5 | C=C1C[C@]23C[C@H]1CC[C@H]2[C@]1(C)CCC[C@@](C)(C(=O)O)[C@H]1[C@@H]3C(=O)O [GA12] | rescue (elongated hypocotyls) with very little elongation | 1 | 0 | + | + |  |  |  | 0 | 0 | neg |  |  |  |  |  |  | 0 | neg | neg | effect on emergence timing and hypocotyl length ([3]; single rate, hilum): inhibited emergence timing and hypocotyl length
6 | C=C1C[C@@]23CC[C@H]4[C@@](C)(CCC[C@@]4(C)C(=O)O)[C@@H]2CC[C@@H]1C3 [kaurenoic acid] | rescue (elongated hypocotyls) with very little elongation | 1 | 0 | 0 |  |  |  |  | 0 | pos | 0 |  |  |  |  |  |  | 0 | 0 | 0 | Observation on Transgenic Line 719, remark in words ([1]; seeds imbibed 5 hours): some rescue

Reference: patent US6723897B2, “Methods for controlling gibberellin levels” (Monsanto Technology, LLC, priority 1998, dated 2004)
